Laboratory results reported in PubChem BioAssay AID330 (DTP/NCI, 2004).
Values joined by “and” are separate entries in the source; they are usually repeats but may differ in a detail not shown here. Identical values can stand only once. Toxic doses and inconclusive results are not listed. Rule for the calls: active = survival T/C of 150% or more; inactive = T/C below 125% in these data.

Test system: P388 leukemia ip, CD2F1 mice, survival T/C
Assay: NCI In Vivo Anticancer Drug Screen. Data for tumor model P388 Leukemia (intraperitoneal) in CD2F1 (CDF1) mice
Details: endpoint: median survival time, higher = longer survival
How it was run: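 Mice carrying the transplanted tumor received test compound or vehicle. Survival was recorded in each group, and the value is the treated-group measurement divided by that of the vehicle-treated control group.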

[1] = dose: 50.0 mg/kg/injection, schedule: Q01DX009 (ip), vehicle: saline with Tween-80
[2] = dose: 100.0 mg/kg/injection, schedule: Q01DX005 (ip), vehicle: saline with Tween-80
[3] = dose: 200.0 mg/kg/injection, schedule: Q01DX005 (ip), vehicle: saline with Tween-80
[4] = dose: 50.0 mg/kg/injection, schedule: Q01DX005 (ip), vehicle: Klucel (hydroxypropylcellulose) (HPC)
[5] = dose: 100.0 mg/kg/injection, schedule: Q01DX005 (ip), vehicle: Klucel (hydroxypropylcellulose) (HPC)
[6] = dose: 200.0 mg/kg/injection, schedule: Q01DX005 (ip), vehicle: Klucel (hydroxypropylcellulose) (HPC)
[7] = dose: 100.0 mg/kg/injection, schedule: Q04DX003 (ip), vehicle: Klucel (hydroxypropylcellulose) (HPC)
[8] = dose: 200.0 mg/kg/injection, schedule: Q04DX003 (ip), vehicle: Klucel (hydroxypropylcellulose) (HPC)
[9] = dose: 400.0 mg/kg/injection, schedule: Q04DX003 (ip), vehicle: Klucel (hydroxypropylcellulose) (HPC)

Measured: T/C

CCN(CC)C(=O)C(C)C1=C(C)C(N(CC)CC)=NS(=O)(=O)c2ccccc21 (stereo not drawn)
inactive: dose: 100.0 mg/kg/injection, schedule: Q04DX002 (ip), vehicle: Klucel (hydroxypropylcellulose) (HPC) 102 % of control | dose: 200.0 mg/kg/injection, schedule: Q04DX002 (ip), vehicle: Klucel (hydroxypropylcellulose) (HPC) 90 % of control | dose: 400.0 mg/kg/injection, schedule: Q04DX002 (ip), vehicle: Klucel (hydroxypropylcellulose) (HPC) 109 % of control

O=S(=O)(NC(=S)S)c1ccccc1
inactive: dose: 12.5 mg/kg/injection, schedule: Q01DX009 (ip), vehicle: water 102 % of control and 88 % of control and 94 % of control | dose: 25.0 mg/kg/injection, schedule: Q01DX009 (ip), vehicle: water 104 % of control and 107 % of control and 94 % of control | dose: 50.0 mg/kg/injection, schedule: Q01DX009 (ip), vehicle: water 102 % of control and 106 % of control and 116 % of control | dose: 100.0 mg/kg/injection, schedule: Q01DX009 (ip), vehicle: water 112 % of control (2×) and 123 % of control

CP1(=S)CCC(=O)C1 (stereo not drawn)
inactive: dose: 50.0 mg/kg/injection, schedule: Q01DX009 (ip), vehicle: saline 101 % of control | dose: 100.0 mg/kg/injection, schedule: Q01DX009 (ip), vehicle: saline 101 % of control | dose: 200.0 mg/kg/injection, schedule: Q01DX009 (ip), vehicle: saline 103 % of control

COc1ccc(C(=O)C(c2ccc(OC)c(OC)c2O)C(OC)OC)c(O)c1 (stereo not drawn)
inactive: dose: 75.0 mg/kg/injection, schedule: Q04DX003 (ip), vehicle: Klucel (hydroxypropylcellulose) (HPC) 100 % of control | dose: 150.0 mg/kg/injection, schedule: Q04DX003 (ip), vehicle: Klucel (hydroxypropylcellulose) (HPC) 98 % of control | dose: 300.0 mg/kg/injection, schedule: Q04DX003 (ip), vehicle: Klucel (hydroxypropylcellulose) (HPC) 98 % of control

CC1C[C@@H]2OC(=O)C(C)[C@@H]2C(O)[C@@]2(C)C(=O)C=CC12 (stereo partly drawn)
inactive: dose: 1.38 mg/kg/injection, schedule: Q01DX005 (ip), vehicle: Klucel (hydroxypropylcellulose) (HPC) 104 % of control | dose: 2.75 mg/kg/injection, schedule: Q01DX005 (ip), vehicle: Klucel (hydroxypropylcellulose) (HPC) 104 % of control | dose: 5.5 mg/kg/injection, schedule: Q01DX005 (ip), vehicle: Klucel (hydroxypropylcellulose) (HPC) 112 % of control | dose: 11.0 mg/kg/injection, schedule: Q01DX005 (ip), vehicle: Klucel (hydroxypropylcellulose) (HPC) 111 % of control

COc1cccc2c1C(=O)c1c(O)c3c(c(O)c1C2=O)CC(=O)CC3OC1CC(NC(=O)C(F)(F)F)C(O)C(C)O1 (stereo not drawn)
inactive: dose: 1.56 mg/kg/injection, schedule: Q01DX009 (ip), vehicle: other 104 % of control | dose: 3.13 mg/kg/injection, schedule: Q01DX009 (ip), vehicle: other 102 % of control | dose: 6.25 mg/kg/injection, schedule: Q01DX009 (ip), vehicle: other 98 % of control | dose: 12.5 mg/kg/injection, schedule: Q01DX009 (ip), vehicle: other 90 % of control

COc1cc2c[n+]3ccccc3c(N)c2cc1OC
inactive: dose: 50.0 mg/kg/injection, schedule: Q04DX003 (ip), vehicle: distilled water + Tween-80 110 % of control | dose: 100.0 mg/kg/injection, schedule: Q04DX003 (ip), vehicle: distilled water + Tween-80 106 % of control | dose: 200.0 mg/kg/injection, schedule: Q04DX003 (ip), vehicle: distilled water + Tween-80 97 % of control

O=C(Nc1nc2c(Cl)cccc2s1)C(F)(F)C(F)(F)C(F)(F)F (tested in a mixture with another compound)
inactive: [1] 114 % of control | dose: 100.0 mg/kg/injection, schedule: Q01DX009 (ip), vehicle: saline with Tween-80 101 % of control

CC(C)c1ccc(C(O)C2CC2)cc1 (stereo not drawn)
inactive: dose: 50.0 mg/kg/injection, schedule: Q04DX003 (ip), vehicle: saline with Tween-80 109 % of control | dose: 100.0 mg/kg/injection, schedule: Q04DX003 (ip), vehicle: saline with Tween-80 95 % of control

CN(C)C(=O)n1cnc([N+](=O)[O-])c1
inactive: dose: 100.0 mg/kg/injection, schedule: Q01DX001 (ip), vehicle: saline with Tween-80 97 % of control | dose: 200.0 mg/kg/injection, schedule: Q01DX001 (ip), vehicle: saline with Tween-80 112 % of control

CC1=CCCC(C)(O)C2CC(CCC3(C)OC3CC1)C(C)C(=O)O2 (stereo not drawn)
inactive: dose: 7.5 mg/kg/injection, schedule: Q01DX009 (ip), vehicle: Klucel (hydroxypropylcellulose) (HPC) 108 % of control | dose: 15.0 mg/kg/injection, schedule: Q01DX009 (ip), vehicle: Klucel (hydroxypropylcellulose) (HPC) 103 % of control | dose: 30.0 mg/kg/injection, schedule: Q01DX009 (ip), vehicle: Klucel (hydroxypropylcellulose) (HPC) 89 % of control | dose: 60.0 mg/kg/injection, schedule: Q01DX009 (ip), vehicle: Klucel (hydroxypropylcellulose) (HPC) 91 % of control

CCOc1c(N=Nc2ccccc2C)c(-c2ccccc2)nn1C(N)=S
inactive: dose: 50.0 mg/kg/injection, schedule: Q01DX005 (ip), vehicle: saline with Tween-80 90 % of control | [2] 88 % of control | [3] 90 % of control

Nc1ccc2cc3ccccc3cc2c1
inactive: dose: 5.0 mg/kg/injection, schedule: Q01DX009 (ip), vehicle: saline with Tween-80 95 % of control | dose: 5.0 mg/kg/injection, schedule: Q04DX003 (ip), vehicle: saline with Tween-80 95 % of control | dose: 10.0 mg/kg/injection, schedule: Q01DX009 (ip), vehicle: saline with Tween-80 104 % of control | dose: 10.0 mg/kg/injection, schedule: Q04DX003 (ip), vehicle: saline with Tween-80 91 % of control | dose: 12.5 mg/kg/injection, schedule: Q01DX009 (ip), vehicle: saline with Tween-80 100 % of control | dose: 20.0 mg/kg/injection, schedule: Q01DX009 (ip), vehicle: saline with Tween-80 118 % of control | dose: 20.0 mg/kg/injection, schedule: Q04DX003 (ip), vehicle: saline with Tween-80 112 % of control | dose: 25.0 mg/kg/injection, schedule: Q01DX009 (ip), vehicle: saline with Tween-80 109 % of control | dose: 40.0 mg/kg/injection, schedule: Q01DX009 (ip), vehicle: saline with Tween-80 118 % of control | dose: 40.0 mg/kg/injection, schedule: Q04DX003 (ip), vehicle: saline with Tween-80 112 % of control | [1] 109 % of control

CCC1(O)CC(OC2CC(N(C)C)C(OC3CC(O)C(OC4CC(O)C(O)C(C)O4)C(C)O3)C(C)O2)c2c(cc3c(c2O)C(=O)c2c(O)ccc(O)c2C3=O)C1C(=O)OC (stereo not drawn)
inactive: dose: 3.13 mg/kg/injection, schedule: Q04DX003 (ip), vehicle: Klucel (hydroxypropylcellulose) (HPC) 105 % of control | dose: 6.25 mg/kg/injection, schedule: Q04DX003 (ip), vehicle: Klucel (hydroxypropylcellulose) (HPC) 99 % of control | dose: 12.5 mg/kg/injection, schedule: Q04DX003 (ip), vehicle: Klucel (hydroxypropylcellulose) (HPC) 105 % of control | dose: 25.0 mg/kg/injection, schedule: Q04DX003 (ip), vehicle: Klucel (hydroxypropylcellulose) (HPC) 118 % of control

COc1cc2c(cc1O)N=C[C@@H]1CCC(O)N1C2=O (mixture of isomers)
inactive: dose: 1.0 mg/kg/injection, schedule: Q01DX009 (ip), vehicle: saline 96 % of control | dose: 2.0 mg/kg/injection, schedule: Q01DX009 (ip), vehicle: saline 104 % of control

CCOC(=O)Cc1oc2c(C(C)=O)c(O)c(C)c(O)c2c1C
inactive: [4] 88 % of control | [5] 89 % of control | [6] 87 % of control

c1ccc(CC2NC(Cc3ccccc3)N3C(Cc4ccccc4)N23)cc1 (stereo not drawn)
inactive: [7] 102 % of control | [8] 100 % of control | [9] 93 % of control

CC(C)C(NC(=O)OC(C)(C)C)C(=O)NC(CC(=O)OCc1ccccc1)C(=O)OCc1ccccc1 (stereo not drawn)
inactive: [2] 88 % of control | [3] 91 % of control | dose: 400.0 mg/kg/injection, schedule: Q01DX005 (ip), vehicle: saline with Tween-80 88 % of control

COc1ccc([B-]23OCC[N+]2(CNC(=O)c2ccccc2O)CCO3)cc1 (stereo not drawn)
inactive: [4] 103 % of control | [5] 112 % of control | [6] 105 % of control

CSc1cccc(NC(=O)Nc2nc3c(C)cccc3s2)c1
inactive: [4] 96 % of control | [5] 95 % of control | [6] 90 % of control

c1ccc(C2(c3ccccc3)CCc3ccccc3O2)cc1
inactive: [7] 105 % of control | [8] 99 % of control | [9] 99 % of control

CC(C)(C)[N]=[V]([Cl])([Cl])[Cl]
inactive: dose: 12.5 mg/kg/injection, schedule: Q01DX005 (ip), vehicle: Klucel (hydroxypropylcellulose) (HPC) 98 % of control | dose: 25.0 mg/kg/injection, schedule: Q01DX005 (ip), vehicle: Klucel (hydroxypropylcellulose) (HPC) 91 % of control | [4] 98 % of control and 91 % of control

CC1C2=C(CCCC2=O)O/C1=N\O (stereo not drawn)
inactive: [7] 96 % of control | [8] 90 % of control | [9] 93 % of control
